Several values for one entry are separate records, joined by “and”; a condition that tells them apart may be missing. Identical values can stand only once.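 These data come from cells grown in 96-well plates and exposed to compound for 48 hours at five concentrations. Here, GI50 denotes the concentration required for 50% inhibition of growth. At the TGI there is no net growth.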
Assays:
Assay in all cases: NCI anticancer screen, dose series, 48 h
[1] = system: MDA-MB-435
[2] = system: HCT-116 colon
[3] = system: 786-0 renal
[4] = system: RPMI-8226 leukemia
[5] = system: SK-OV-3 ovarian
[6] = system: HL-60(TB) leukemia
[7] = system: NCI-H23 lung
[8] = system: MCF7 breast
[9] = system: UACC-62 melanoma
[10] = system: HCC-2998 colon

Compound	GI50 [1]	TGI [1]	GI50 [2]	TGI [2]	GI50 [3]	TGI [3]	GI50 [4] [µM]	TGI [4]	GI50 [5]	TGI [5]	GI50 [6]	TGI [6]	GI50 [7]	TGI [7]	GI50 [8]	TGI [8]	GI50 [9]	TGI [9]	GI50 [10]	TGI [10]
COc1ccc(C(=O)COc2ccc(/C=C3\COc4ccc(OC)cc4C3=O)cc2)cc1	6.46 µM	78.5 µM	11.1 µM	31.1 µM	16.7 µM	37.9 µM	3.47	22.6 µM	30.6 µM	81 µM	11 µM	62.8 µM	9.67 µM	32.8 µM	3.1 µM	18.6 µM	48.9 µM	> 100 µM		
CC1(C)[C@@H](OC(N)=O)[C@H]2O[C@H]2[C@]2(C=O)[C@H]3CC[C@]4(C)[C@@H](c5ccc(=O)oc5)[C@@H](Cl)C[C@]4(O)C3=CC[C@@H]12	0.00704 µM	0.0187 µM	0.00435 µM	0.00853 µM	0.00489 µM	0.0105 µM	0.00795	0.034 µM	0.007 µM	0.0203 µM	0.00557 µM	0.0131 µM	0.00379 µM	0.0111 µM	0.00724 µM	0.0281 µM	0.00614 µM	0.0172 µM	0.00815 µM	0.0342 µM
CCn1c(-c2ccc(OC(C)=O)cc2)c(C)c2cc(OC(C)=O)ccc21		33.7 µM		22.1 µM		86.9 µM		42.6 µM		74.5 µM		42.9 µM		57.4 µM		40.4 µM		28.3 µM		
CCc1nc(C(N)=O)c(Nc2ccc(N3CCC(N4CCN(C)CC4)CC3)c(OC)c2)nc1NC1CCOCC1	3.23 µM and 0.511 µM and 3.96 µM	20.7 µM and > 6.91 µM and 20.8 µM	1.39 µM and 0.34 µM and 1.23 µM	14.1 µM and > 10 µM and 14.9 µM	2.48 µM and 0.461 µM and 2.38 µM	13.8 µM and > 10 µM and 14.1 µM		30.8 µM and > 2.71 µM and 36.4 µM	1.57 µM and 0.397 µM and 1.51 µM	12.3 µM and > 10 µM and 13.8 µM	0.871 µM and 0.367 µM and 0.968 µM	11.3 µM and > 10 µM and 14.9 µM	1.48 µM and 0.386 µM and 1.2 µM	23.5 µM and > 2.7 µM and 24.7 µM	0.672 µM and 0.258 µM and 0.493 µM	17.2 µM and > 10 µM and 17.7 µM	1.53 µM and 0.527 µM and 1.56 µM	16.9 µM and > 10 µM and 16.4 µM	8.08 µM and 1.4 µM and 8.55 µM	22.2 µM and > 3.14 µM and 23.5 µM
Clc1ccc(C=Nc2ccc3c(c2)Cc2ccccc2-3)c(Cl)c1		> 100 µM		> 100 µM		> 100 µM		> 100 µM		> 100 µM		> 100 µM		> 100 µM		> 100 µM		> 100 µM		
C1CCC([PH+](C2CCCCC2)C2CCCCC2[PH+](C2CCCCC2)C2CCCCC2)CC1.O=C(C1[CH-]CCCC1)C1CCCC[N-]1.[Au] (stereo not given)	0.229 µM	0.704 µM			0.413 µM	1.85 µM			0.33 µM	1.4 µM	0.249 µM	0.731 µM					0.226 µM	0.835 µM		
CC(=O)N[C@H]1CSSC[C@@H](C(N)=O)NC(=O)[C@H](C(C)C)NC(=O)[C@H](C)NC(=O)[C@H](Cc2cnc[nH]2)NC1=O	> 100 µM	> 100 µM			> 100 µM	> 100 µM	> 100	> 100 µM	> 100 µM	> 100 µM	> 100 µM	> 100 µM	> 100 µM	> 100 µM			> 100 µM	> 100 µM	> 100 µM	> 100 µM
C=C1CCC(CC[C@@H]2CC[C@]3(OC2)O[C@@]2(O)CC[C@]3(C)OC2(C)C)C(C)(C)[C@H]1C/C=C1/C(=O)OC[C@@H]1O (stereo not given in full)		5.82 µM		4.89 µM		7.78 µM		> 25.1 µM		16.6 µM				5.2 µM		2.94 µM		3.8 µM		10.2 µM
O=C1CC2CCCC23CC2(CCN13)OCCO2 (stereo not given)				> 100 µM		> 100 µM		> 100 µM		> 100 µM		> 100 µM		> 100 µM				> 100 µM		> 100 µM
CN(CCC#N)c1ccc(/C=C(\C#N)c2ccc(Br)cc2)cc1	1.97 µM	> 100 µM			> 100 µM	> 100 µM			> 100 µM	> 100 µM	4.43 µM	> 100 µM	> 100 µM	> 100 µM	4.05 µM	> 100 µM				
O=c1c2ccccc2c(=O)c2c1[nH]c1c(-c3ccccc3)c(-c3ccccc3)c(=O)c12	3.24 µM	9.42 µM	2.31 µM	4.87 µM	3.96 µM	14.9 µM	2.07	12 µM					3.72 µM	14.4 µM	2.48 µM	> 100 µM	1.72 µM	3.38 µM	2.09 µM	5.05 µM
O=C1NC(=O)C(CC2CCCCCCCCCCC2=O)C(=O)N1 (stereo not given)		> 100 µM		> 100 µM		> 100 µM				> 100 µM		> 100 µM		> 100 µM		> 100 µM		> 100 µM		> 100 µM
CC(=O)C(=CN1CCN(C(=O)c2ccco2)C1=S)C(C)=O	12.6 µM	49 µM	4.05 µM	13.7 µM	5.34 µM	18.8 µM	2.74	> 100 µM	20 µM	43.9 µM	5.79 µM	> 100 µM	16.4 µM	31.6 µM			5.52 µM	19.1 µM		
O=c1cccc(C#CC#CC2=CCCCC2)o1	4 µM	10.4 µM	1.16 µM	3.67 µM	1.59 µM	4.35 µM	2.19	5.83 µM	10.5 µM	27.9 µM	4.77 µM	18.3 µM	1.14 µM	2.87 µM	5.04 µM	13.4 µM	2.87 µM	8.56 µM		
COc1ccc(/C=C/C(=O)C(CC2CCC2)C(=O)/C=C/c2ccc(OC)c(OC)c2)cc1OC	1.49 µM	3.15 µM	0.965 µM	2.42 µM	1.83 µM	3.45 µM	1.73	6.4 µM	2.69 µM	6.69 µM	1.69 µM	5.94 µM	2.19 µM	5.87 µM	0.6 µM	40.5 µM			1.85 µM	3.41 µM
O=C(NCO)NCOCn1c(=O)n(CO)c(=O)n(CO)c1=O				96.2 µM		> 100 µM		68.4 µM		> 100 µM		47.5 µM		36.3 µM				36.8 µM		> 100 µM
Nc1ccc2cc3ccc(N)cc3nc2c1		4.37 µM and 4.04 µM		10.8 µM [middle of 4 runs]	1.97 µM [middle of 4 runs]	11.8 µM [middle of 4 runs]		4.77 µM and 5.01 µM and 6.42 µM					1.58 µM [middle of 4 runs]		0.52 µM	7.19 µM and 22.6 µM and 14.5 µM		3.73 µM [middle of 4 runs]		4.87 µM and 2.56 µM and 2.47 µM

Compound	GI50 [1]	TGI [1]	GI50 [2]	TGI [2]	GI50 [3]	TGI [3]	GI50 [4] [µM]	TGI [4]	GI50 [5]	TGI [5]	GI50 [6]	TGI [6]	GI50 [7]	TGI [7]	GI50 [8]	TGI [8]	GI50 [9]	TGI [9]	GI50 [10]	TGI [10]
Cc1c(C(=O)/C=C/c2ccccc2)[n+](=O)c2ccccc2n1[O-]				32.4 µM		32 µM		45.9 µM		42.7 µM		40.7 µM		29.5 µM				28.6 µM		30.2 µM
O=C(/C=C\c1ccc(NCc2ccc(C(=O)O)cc2)cc1)CCl	15.8 µM	31.9 µM	2.5 µM	10.3 µM	10.2 µM	23.9 µM	9.07	35.3 µM	15.1 µM	28.8 µM	14.8 µM	36.7 µM	15.5 µM	31 µM	4.26 µM	17.7 µM				
CCCCCCCCCCCCCCCCCCOc1ccccc1CC(=O)OCC[N+]1(C)CCCC1	1.73 µM	3.31 µM			1.71 µM	3.25 µM			18.9 µM	38.8 µM	2.1 µM	5.07 µM			2.11 µM	4.76 µM	1.63 µM	3.33 µM		
CC1=C[C@H]2c3c(c(O)c(O)c4oc(-c5ccccc5)cc(=O)c34)[C@H](c3cc(O)c(O)c4oc(-c5ccccc5)cc(=O)c34)[C@H]2C(C)(C)C1	0.435 µM	5.74 µM	0.272 µM	1.45 µM	1.71 µM	7.83 µM			1.76 µM	10.9 µM	2.33 µM	7.33 µM	0.375 µM	2.56 µM	0.597 µM	9.16 µM	0.516 µM	1.97 µM	1.56 µM	4.65 µM
Cc1ccc(-c2nc3ccc(Cl)cc3c(=O)n2N2C(=O)CSC2c2ccccc2Cl)cc1 (stereo not given)	> 100 µM	> 100 µM	5.51 µM	> 100 µM	3.62 µM	> 100 µM	> 100	> 100 µM	2.89 µM	9.9 µM			> 100 µM	> 100 µM	26.9 µM	> 100 µM	25.8 µM	> 100 µM	> 100 µM	> 100 µM
C/C(CC(=O)NCCc1ccccc1)=N\NC(=O)C[n+]1ccccc1				> 100 µM		> 100 µM		> 100 µM		> 100 µM		> 100 µM		> 100 µM				> 100 µM		> 100 µM
NC(=O)NCc1c(C(N)=O)ncn1Cc1ccccc1				> 100 µM		> 100 µM		> 100 µM		> 100 µM		> 100 µM		> 100 µM				> 100 µM		> 100 µM
CC(CO)(CO)NCCCCn1ccc2c1C(=O)c1c(c(O)c3ccccc3c1O)C2=O	1.76 µM	3.56 µM	1.58 µM	2.92 µM	10.9 µM	26.9 µM			27.4 µM	98.7 µM	2.37 µM	> 100 µM	15.8 µM	36.4 µM	17.1 µM	53.4 µM			6.2 µM	20.9 µM
CC(C)(C[C@H]1CN(S(=O)(=O)c2cccc(C(F)(F)F)c2)c2cc(-c3cc(F)cc(OC(F)F)c3)ccc2O1)C(=O)O	2.44 µM	7.58 µM	4.01 µM	15.8 µM	6.98 µM	20.7 µM	3.45	17.6 µM	13.2 µM	27.4 µM	4.82 µM	24.8 µM	9.4 µM	26.3 µM	3.98 µM	22.4 µM			10.1 µM	24.4 µM
COc1cc(/C=C/c2ccc(OC)c(OC)c2)cc(OC)c1		> 100 µM		> 100 µM		44.7 µM		> 100 µM		> 100 µM				65.3 µM		> 100 µM		63.5 µM		
S=C1OC2CCCC[C@H]2O1 (stereo not given in full)				> 100 µM		> 100 µM		> 100 µM		> 100 µM		> 100 µM		> 100 µM				> 100 µM		> 100 µM
CN(C)CCN1C(=O)c2ccc3c4c(ccc(c24)C1=O)C(=O)N(CCN=C=S)C3=O	0.0585 µM	0.249 µM	0.027 µM	0.134 µM	0.0436 µM	0.416 µM	0.0318	0.197 µM	0.164 µM	0.668 µM			0.162 µM	0.417 µM	0.0257 µM	0.129 µM	0.071 µM	0.211 µM	0.172 µM	0.381 µM
C=CC/C=C/C/C=C/CCCCCCCc1cccc(O)c1C(=O)O				> 100 µM		> 100 µM		> 100 µM		79.8 µM		> 100 µM		75.9 µM				> 100 µM		> 100 µM
CCOc1cc(C(C)(C)C)ccc1C1=N[C@@](C)(c2ccc(Cl)cc2)[C@@](C)(c2ccc(Cl)cc2)N1C(=O)N1CCN(CCCS(C)(=O)=O)CC1	5.21 µM	19.4 µM			3.2 µM	15.4 µM	3.13	> 100 µM	14 µM	32.9 µM	2.48 µM	6.15 µM	10.4 µM	24.9 µM	0.456 µM	3.89 µM	0.708 µM	6.41 µM	2.51 µM	6.95 µM
COc1c(CCl)cc(-c2cc(=O)c3ccccc3s2)cc1CCl		> 100 µM		> 100 µM		1.74 µM		> 100 µM		> 60.2 µM		> 23.6 µM		> 100 µM		> 22.7 µM		> 100 µM		
CCCSc1nc(COC(=O)NC)c(COC(=O)NC)n1C				> 100 µM		> 100 µM		57.4 µM and > 94.9 µM		> 100 µM		89.6 µM and > 100 µM		> 100 µM		> 100 µM		> 100 µM		> 100 µM
